# Laboratory results: the supplement of paper PMC4862054
# Several values for one entry are separate records, joined by “and”; a condition that tells them apart may be missing. Equal entries are not always repeated.
# Assays:
# Details in all cases: incubation time: 72 h
# [1] = system: CAL-85-1; experiment: normalised viability (% of control), CellTiter-Blue; higher = more viable cells (about 100 = DMSO control)
# Protocol: (§1)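 DSRT, CellTiter-Blue viability, 72 h incubation. Signal is normalised to DMSO and benzethonium chloride controls. Value is the normalised response at dose 7.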
# [2] = system: HDQ-P1; experiment: as above
# Protocol: as §1
# [3] = system: CAL-51; experiment: as above
# Protocol: as §1
# [4] = system: MDA-MB-453; experiment: as above
# Protocol: as §1
# [5] = system: CAL-148; experiment: as above
# Protocol: as §1
# [6] = system: DU-4475; experiment: as above
# Protocol: as §1
# [7] = system: CAL-85-1; experiment: normalised response (% of control), CellTox Green; higher = less cell death (100 = DMSO, 0 = benzethonium chloride kill control)
# Procedure, shortened: (§2)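 A 20 µl suspension of breast cancer cells was seeded into each well of 384-well plates containing compound at 5 concentrations in 10-fold steps over a compound-specific 10,000-fold range. After 72 h incubation, CellTox Green fluorescence (485/520 nm) was read first, and CellTiter-Glo luminescence was read after 10 min at room temperature. Each plate was normalised against 0.1 % DMSO (100) and a positive kill control (0), and each value is the normalised signal at one concentration.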
# [8] = system: BT-474; experiment: as above
# Procedure, shortened: as §2
# [9] = system: MDA-MB-231; experiment: as above
# Procedure, shortened: as §2
# [10] = system: HDQ-P1; experiment: as above
# Procedure, shortened: as §2
# [11] = system: MFM-223; experiment: as above
# Procedure, shortened: as §2
# [12] = system: CAL-51; experiment: as above
# Procedure, shortened: as §2
# [13] = system: MDA-MB-453; experiment: as above
# Procedure, shortened: as §2
# [14] = system: CAL-148; experiment: as above
# Procedure, shortened: as §2
# [15] = system: Hs578T; experiment: as above
# Procedure, shortened: as §2
# [16] = system: BT-549; experiment: as above
# Procedure, shortened: as §2
# [17] = system: DU-4475; experiment: as above
# Procedure, shortened: as §2
# [18] = system: CAL-120; experiment: as above
# Procedure, shortened: as §2
# [19] = system: HCC1937; experiment: as above
# Procedure, shortened: as §2
# [20] = system: MCF-10A; experiment: as above
# Procedure, shortened: as §2
# [21] = system: HCC1599; experiment: as above
# Procedure, shortened: as §2
# [22] = system: HCC1143; experiment: as above
# Procedure, shortened: as §2
# [23] = system: MDA-MB-468; experiment: as above
# Procedure, shortened: as §2
# [24] = system: MDA-MB-436; experiment: as above
# Procedure, shortened: as §2
# [25] = system: CAL-85-1; experiment: normalised response (% of control), CellTiter-Glo; higher = more viable cells (100 = DMSO, 0 = benzethonium chloride kill control)
# Protocol: (§3)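 DSRT, 72 h incubation, CellTox Green / CellTiter-Glo readout. Signal is normalised to DMSO and benzethonium chloride controls. Value is the normalised response at the highest dose.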
# [26] = system: BT-474; experiment: as above
# Protocol: as §3
# [27] = system: MDA-MB-231; experiment: as above
# Protocol: as §3
# [28] = system: HDQ-P1; experiment: as above
# Protocol: as §3
# [29] = system: MFM-223; experiment: as above
# Protocol: as §3
# [30] = system: CAL-51; experiment: as above
# Protocol: as §3
# [31] = system: MDA-MB-453; experiment: as above
# Protocol: as §3
# [32] = system: CAL-148; experiment: as above
# Protocol: as §3
# [33] = system: Hs578T; experiment: as above
# Protocol: as §3
# [34] = system: BT-549; experiment: as above
# Protocol: as §3
# [35] = system: DU-4475; experiment: as above
# Protocol: as §3
# [36] = system: CAL-120; experiment: as above
# Protocol: as §3
# [37] = system: HCC1937; experiment: as above
# Protocol: as §3
# [38] = system: MCF-10A; experiment: as above
# Protocol: as §3
# [39] = system: HCC1599; experiment: as above
# Protocol: as §3
# [40] = system: SK-BR-3; experiment: as above
# Protocol: as §3
# [41] = system: HCC1143; experiment: as above
# Protocol: as §3
# [42] = system: MDA-MB-468; experiment: as above
# Protocol: as §3
# [43] = system: MDA-MB-436; experiment: as above
# Protocol: as §3
# [44] = system: CAL-85-1; experiment: normalised viability (% of control), CellTiter-Blue; higher = more viable cells (about 100 = DMSO control); remark: listed apart in the source
# Protocol: (§4)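 DSRT, CellTiter-Blue viability, 72 h incubation. Signal is normalised to DMSO and benzethonium chloride controls. Value is the normalised response at dose 6.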
# [45] = system: CAL-51; experiment: as above; remark: listed apart in the source
# Protocol: as §4
# [46] = system: MDA-MB-453; experiment: as above; remark: listed apart in the source
# Protocol: as §4
# [47] = system: CAL-148; experiment: as above; remark: listed apart in the source
# Protocol: as §4
# [48] = system: DU-4475; experiment: as above; remark: listed apart in the source
# Protocol: as §4
smiles,measurement,setting,value
CCN(CC)CCCC(C)Nc1ccnc2cc(Cl)ccc12 (stereo not drawn) [Chloroquine] (99 nM),normalised viability,[1],81.9%
same,normalised viability,[2],132%
same,normalised viability,[3],91%
same,normalised viability,[4],99.7%
same,normalised viability,[5],99.1%
same,normalised viability,[6],110%
CC1(COc2ccc3c(c2)ncn3-c2ccc3cccc(N4CCC(N)CC4)c3n2)COC1 [Crenolanib] (10000 nM),normalised response,[7],-25.9%
same,normalised response,[8],17.5%
same,normalised response,[9],-59%
same,normalised response,[10],39.2%
same,normalised response,[11],93.4%
same,normalised response,[12],30.6%
same,normalised response,[13],78.5%
same,normalised response,[14],-15.7%
same,normalised response,[15],103%
same,normalised response,[16],28.9%
same,normalised response,[17],63.6%
same,normalised response,[18],74.8%
same,normalised response,[19],87.1%
same,normalised response,[20],-4.14%
same,normalised response,[21],81.5%
same,normalised response,[22],55.7%
same,normalised response,[23],131%
same,normalised response,[24],36.1%
same,normalised response,[25],1.52%
same,normalised response,[26],3.8%
same,normalised response,[27],0.75%
same,normalised response,[28],13.9%
same,normalised response,[29],61.4%
same,normalised response,[30],7.22%
same,normalised response,[31],15.6%
same,normalised response,[32],8.15%
same,normalised response,[33],27.5%
same,normalised response,[34],20.6%
same,normalised response,[35],25%
same,normalised response,[36],52.4%
same,normalised response,[37],52.4%
same,normalised response,[38],10.4%
same,normalised response,[39],60.6%
same,normalised response,[40],2.13%
same,normalised response,[41],75.8%
same,normalised response,[42],12.9%
same,normalised response,[43],7.1%
CN(Cc1cnc2nc(N)nc(N)c2n1)c1ccc(C(=O)N[C@@H](CCC(=O)O)C(=O)O)cc1 [Methotrexate] (1000 nM),normalised viability,[1],57.4%
same,normalised viability,[2],77.6%
same,normalised viability,[3],42.5%
same,normalised viability,[4],84.2%
same,normalised viability,[5],67.8%
same,normalised viability,[6],110%
COc1c2occc2cc2ccc(=O)oc12 [Methoxsalen] (1000 nM),normalised viability,[1],104%
same,normalised viability,[2],96.9%
same,normalised viability,[3],100%
same,normalised viability,[4],97.9%
same,normalised viability,[5],106%
same,normalised viability,[6],112%
C=CCN(/C=C1/C(=O)O[C@H](COC)[C@@]2(C)C1=C(O)C(=O)C1=C2[C@H](OC(C)=O)C[C@]2(C)C(=O)CC[C@@H]12)CC=C [PX-866] (1000 nM),normalised viability,[1],95%
same,normalised viability,[2],86.3%
same,normalised viability,[3],112%
same,normalised viability,[4],101%
same,normalised viability,[5],99.4%
same,normalised viability,[6],102%
CC[C@H](CO)Nc1nc(NCc2ccccc2)c2ncn(C(C)C)c2n1 [Roscovitine] (1000 nM),normalised viability,[1],87.8%
same,normalised viability,[2],104%
same,normalised viability,[3],105%
same,normalised viability,[4],96.2%
same,normalised viability,[5],92.1%
same,normalised viability,[6],101%
CC[C@H](CO)Nc1nc(NCc2ccccc2)c2ncn(C(C)C)c2n1 [Seliciclib] (10000 nM),normalised response,[7],62.7%
same,normalised response,[8],100%
same,normalised response,[9],108%
same,normalised response,[10],106%
same,normalised response,[11],68.6%
same,normalised response,[12],99.4%
same,normalised response,[13],108%
same,normalised response,[14],95.6%
same,normalised response,[15],84.9%
same,normalised response,[16],91.5%
same,normalised response,[17],105%
same,normalised response,[18],97.2%
same,normalised response,[19],105%
same,normalised response,[20],108%
same,normalised response,[21],110%
same,normalised response,[22],84.5%
same,normalised response,[23],154%
same,normalised response,[24],91.4%
same,normalised response,[25],83.9%
same,normalised response,[26],82.1%
same,normalised response,[27],81.1%
same,normalised response,[28],84.4%
same,normalised response,[29],89%
same,normalised response,[30],78.7%
same,normalised response,[31],132%
same,normalised response,[32],117%
same,normalised response,[33],96.4%
same,normalised response,[34],80.1%
same,normalised response,[35],97.7%
same,normalised response,[36],92%
same,normalised response,[37],92.4%
same,normalised response,[38],95.9%
same,normalised response,[39],95.9%
same,normalised response,[40],86.2%
same,normalised response,[41],96.3%
same,normalised response,[42],87.1%
same,normalised response,[43],79.9%
O=[N+]([O-])c1ccc2c(c1)S(=O)(=O)C=C2 [Stattic] (50000 nM),normalised response,[7],-51.7%
same,normalised response,[8],8.89%
same,normalised response,[9],-17.4%
same,normalised response,[10],27.2%
same,normalised response,[11],30.1%
same,normalised response,[12],34.1%
same,normalised response,[13],17.2%
same,normalised response,[14],25.6%
same,normalised response,[15],-12.9%
same,normalised response,[16],-34.2%
same,normalised response,[17],82.3%
same,normalised response,[18],27.8%
same,normalised response,[19],-18.2%
same,normalised response,[20],-24.7%
same,normalised response,[21],65%
same,normalised response,[22],-42.8%
same,normalised response,[23],-81.1%
same,normalised response,[24],-15.2%
same,normalised response,[25],-0.24%
same,normalised response,[26],0.34%
same,normalised response,[27],-0.2%
same,normalised response,[28],0.11%
same,normalised response,[29],0.11%
same,normalised response,[30],0.17%
same,normalised response,[31],0.25%
same,normalised response,[32],0.45%
same,normalised response,[33],0.3%
same,normalised response,[34],-0.12%
same,normalised response,[35],0.04%
same,normalised response,[36],-0.12%
same,normalised response,[37],0.16%
same,normalised response,[38],0.13%
same,normalised response,[39],0.17%
same,normalised response,[40],0.32%
same,normalised response,[41],0.27%
same,normalised response,[42],0.18%
same,normalised response,[43],-0.02%
CC(C)n1cnc2c(NCCc3ccc(O)cc3)nc(-c3csc4ccccc34)nc21 [StemRegenin 1] (10000 nM),normalised response,[7],78.5%
same,normalised response,[8],85.5%
same,normalised response,[9],100%
same,normalised response,[10],84.8%
same,normalised response,[11],28.5%
same,normalised response,[12],122%
same,normalised response,[13],87.5%
same,normalised response,[14],104%
same,normalised response,[15],-20%
same,normalised response,[16],94.6%
same,normalised response,[17],98.1%
same,normalised response,[18],103%
same,normalised response,[19],91.1%
same,normalised response,[20],118%
same,normalised response,[21],102%
same,normalised response,[22],70.8%
same,normalised response,[23],130%
same,normalised response,[24],103%
same,normalised response,[25],78.2%
same,normalised response,[26],71.4%
same,normalised response,[27],85.3%
same,normalised response,[28],76.9%
same,normalised response,[29],59.2%
same,normalised response,[30],107%
same,normalised response,[31],76.1%
same,normalised response,[32],102%
same,normalised response,[33],76.3%
same,normalised response,[34],76.4%
same,normalised response,[35],89.3%
same,normalised response,[36],89.2%
same,normalised response,[37],58.9%
same,normalised response,[38],97.7%
same,normalised response,[39],61.6%
same,normalised response,[40],68.3%
same,normalised response,[41],93.6%
same,normalised response,[42],47.5%
same,normalised response,[43],74%
O=C(CCCCCCC(=O)Nc1ccccc1)NO [Vorinostat] (300 nM),normalised viability,[44],95.3% and 104%
same,normalised viability,[45],116% and 104%
same,normalised viability,[46],82.8% and 81.7%
same,normalised viability,[47],85.6% and 94.9%
same,normalised viability,[48],97.4% and 88.9%
